This is an account of results in EP0218359A1, “Conditioning natural gas streams with preferential physical solvents” (EL PASO HYDROCARBONS COMPANY, priority 1985, dated 1987).

Common to all, as to assay type: physicochemical
Data set [1] can be described thus: preferential factor (relative volatility of methane over ethane multiplied by solubility of ethane in solvent). The note with it: relative volatility of methane over ethane x solubility of ethane in solvent. An excerpt:
The preferential physical solvents are defined for the purposes of this invention as having a minimum relative volatility of methane over ethane of at least 5.0 (thereby defining its improved selectivity toward ethane over methane) and in addition a solubility of at least 1.77 normal cubic meters of gaseous hydrocarbons per cubic meter of the solvent (Nm^3/m^3) (thereby defining its hydrocarbon loading capacity), or, alternatively, a preferential factor of at least 8.85. The preferential factor for physical solvent selection for the Mehra Process is defined as a product of relative volatility of methane over ethane multiplied by the solubility of ethane in physical solvents, specified as normal cubic meters of ethane per cubic meter of solvent. […] This combination of minimum relative volatility and minimum solubility enables solvent flow rate variations and operating pressure and temperature variations to be selectively 'utilized in the Mehra Process for flexibly producing liquid products having selected hydrocarbon compositions.
Relative Volatilities of Ethane/Methane, Solubilities of Ethane in Solvent, and combined Preferential Factors are given in the following Table II for NMP, DMF, a common lean oil, the minimum solvent having desired requirements for Mehra Process applications, DMPEG, mesitylene, and the ideal solvent in the Mehra Process. […]

The nature of data set [2]: solubility of hydrocarbons in the solvent (hydrocarbon loading capacity). The note with it: normal cubic meters of gaseous hydrocarbons per cubic meter of the solvent. From the text:
(§1) The preferential factor for physical solvent selection for the Mehra Process is defined as a product of relative volatility of methane over ethane multiplied by the solubility of ethane in physical solvents, specified as normal cubic meters of ethane per cubic meter of solvent.

A short description of data set [3]: relative volatility of methane over ethane in the presence of the solvent.
Source text: as §1

On to `CN1CCCC1=O` [NMP, N-methyl pyrrolidone], for which, in data set [1], the preferential factor amounted to 1.1. The compound also registered a solubility of hydrocarbons in data set [2] of 0.2 Nm^3/m^3. Also, in data set [3], the “relative volatility for methane with respect to ethane” value was 5.3.
For “dimethyl ether of polyethylene glycol [DMPEG]”, in that order: 45, 7.0 Nm^3/m^3 and 6.4.
